In PubChem BioAssay (NCI):
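Cultured in 96-well plates, cells were exposed to test compound for 48 hours across five concentrations. TGI denotes the concentration required for complete inhibition of growth.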

What was measured:
Assay in all cases: inhibition of tumour cell growth, NCI panel, 48 h
OVCAR-4 ovarian = tested on: OVCAR-4 ovarian
SK-OV-3 ovarian = tested on: SK-OV-3 ovarian
KM12 colon = tested on: KM12 colon
HCT-116 colon = tested on: HCT-116 colon
RPMI-8226 leukemia = tested on: RPMI-8226 leukemia
MDA-MB-435 = tested on: MDA-MB-435
HL-60(TB) leukemia = tested on: HL-60(TB) leukemia
MDA-N = tested on: MDA-N
K-562 leukemia = tested on: K-562 leukemia
SF-268 CNS = tested on: SF-268 CNS
HT29 colon = tested on: HT29 colon
RXF 393 renal = tested on: RXF 393 renal
UACC-62 melanoma = tested on: UACC-62 melanoma
COLO 205 colon = tested on: COLO 205 colon
SK-MEL-2 melanoma = tested on: SK-MEL-2 melanoma
SK-MEL-5 melanoma = tested on: SK-MEL-5 melanoma
BT-549 breast = tested on: BT-549 breast
A498 renal = tested on: A498 renal
SF-295 CNS = tested on: SF-295 CNS
M14 melanoma = tested on: M14 melanoma
EKVX NSCLC = tested on: EKVX NSCLC
NCI-H23 lung = tested on: NCI-H23 lung
SF-539 CNS = tested on: SF-539 CNS
NCI-H460 lung = tested on: NCI-H460 lung
NCI/ADR-RES ovarian = tested on: NCI/ADR-RES ovarian
HOP-62 NSCLC = tested on: HOP-62 NSCLC
HS 578T breast = tested on: HS 578T breast
OVCAR-5 ovarian = tested on: OVCAR-5 ovarian
UACC-257 melanoma = tested on: UACC-257 melanoma
ACHN renal = tested on: ACHN renal
T-47D breast = tested on: T-47D breast
IGROV1 ovarian = tested on: IGROV1 ovarian
TK-10 renal = tested on: TK-10 renal
MOLT-4 leukemia = tested on: MOLT-4 leukemia
HOP-92 NSCLC = tested on: HOP-92 NSCLC
SR leukemia = tested on: SR leukemia
CAKI-1 renal = tested on: CAKI-1 renal
DU-145 prostate = tested on: DU-145 prostate
U251 CNS = tested on: U251 CNS
A549 NSCLC = tested on: A549 NSCLC
MDA-MB-231 breast = tested on: MDA-MB-231 breast
SNB-75 CNS = tested on: SNB-75 CNS
HCT-15 colon = tested on: HCT-15 colon
SW-620 colon = tested on: SW-620 colon
786-0 renal = tested on: 786-0 renal
OVCAR-8 ovarian = tested on: OVCAR-8 ovarian
MALME-3M melanoma = tested on: MALME-3M melanoma
NCI-H522 lung = tested on: NCI-H522 lung
UO-31 renal = tested on: UO-31 renal
NCI-H226 lung = tested on: NCI-H226 lung
PC-3 prostate = tested on: PC-3 prostate
HCC-2998 colon = tested on: HCC-2998 colon
SNB-19 CNS = tested on: SNB-19 CNS
OVCAR-3 ovarian = tested on: OVCAR-3 ovarian
MCF7 breast = tested on: MCF7 breast
SK-MEL-28 melanoma = tested on: SK-MEL-28 melanoma
SN12C renal = tested on: SN12C renal
LOX IMVI melanoma = tested on: LOX IMVI melanoma
CCRF-CEM leukemia = tested on: CCRF-CEM leukemia

## O=C(/C=C/c1cccc(Br)c1)c1ccc(Cl)cc1
OVCAR-4 ovarian
  TGI: 32.1 µM
SK-OV-3 ovarian
  TGI: 43.6 µM
KM12 colon
  TGI: 32.5 µM
HCT-116 colon
  TGI: 18 µM
RPMI-8226 leukemia
  TGI: 6.31 µM
MDA-MB-435
  TGI: 25.5 µM
HL-60(TB) leukemia
  TGI: 44.5 µM
MDA-N
  TGI: 20 µM
K-562 leukemia
  TGI: 45.7 µM
SF-268 CNS
  TGI: 34.1 µM
HT29 colon
  TGI: 24.5 µM
RXF 393 renal
  TGI: 35.5 µM
UACC-62 melanoma
  TGI: 29 µM
COLO 205 colon
  TGI: 30.9 µM
SK-MEL-2 melanoma
  TGI: 29.3 µM
SK-MEL-5 melanoma
  TGI: 27.2 µM
BT-549 breast
  TGI: 31.9 µM
A498 renal
  TGI: 26.5 µM
SF-295 CNS
  TGI: 32.6 µM
M14 melanoma
  TGI: 28.1 µM
EKVX NSCLC
  TGI: 29.7 µM
NCI-H23 lung
  TGI: 32.7 µM
SF-539 CNS
  TGI: 30.4 µM
NCI-H460 lung
  TGI: 37.3 µM
NCI/ADR-RES ovarian
  TGI: 59.2 µM
HOP-62 NSCLC
  TGI: 35.9 µM
HS 578T breast
  TGI: 57.3 µM
OVCAR-5 ovarian
  TGI: 30.6 µM
UACC-257 melanoma
  TGI: 32.1 µM
ACHN renal
  TGI: 30.4 µM
T-47D breast
  TGI: 32.1 µM
IGROV1 ovarian
  TGI: 35.8 µM
TK-10 renal
  TGI: 27.2 µM
MOLT-4 leukemia
  TGI: 77.8 µM
HOP-92 NSCLC
  TGI: 31.7 µM
SR leukemia
  TGI: 20.4 µM
CAKI-1 renal
  TGI: 40.1 µM
DU-145 prostate
  TGI: 30.3 µM
U251 CNS
  TGI: 18.6 µM
A549 NSCLC
  TGI: 33.5 µM
MDA-MB-231 breast
  TGI: 35.2 µM
SNB-75 CNS
  TGI: 28.1 µM
HCT-15 colon
  TGI: 31.1 µM
SW-620 colon
  TGI: 13.3 µM
786-0 renal
  TGI: 28.3 µM
OVCAR-8 ovarian
  TGI: 32.1 µM
MALME-3M melanoma
  TGI: 29 µM
NCI-H522 lung
  TGI: 30.5 µM
UO-31 renal
  TGI: 29.3 µM
NCI-H226 lung
  TGI: 33.7 µM
PC-3 prostate
  TGI: 28.2 µM
HCC-2998 colon
  TGI: 33.7 µM
SNB-19 CNS
  TGI: 30.1 µM
OVCAR-3 ovarian
  TGI: 32.3 µM
MCF7 breast
  TGI: 16.3 µM
SK-MEL-28 melanoma
  TGI: 29.1 µM
SN12C renal
  TGI: 32.4 µM
LOX IMVI melanoma
  TGI: 28 µM
CCRF-CEM leukemia
  TGI: 24.9 µM

## O=[N+]([O-])O
OVCAR-4 ovarian
  TGI: > 100 µM
SK-OV-3 ovarian
  TGI: > 100 µM
KM12 colon
  TGI: > 100 µM
HCT-116 colon
  TGI: > 100 µM
RPMI-8226 leukemia
  TGI: > 100 µM
MDA-MB-435
  TGI: > 100 µM
HL-60(TB) leukemia
  TGI: > 100 µM
MDA-N
  TGI: > 100 µM
K-562 leukemia
  TGI: > 100 µM
SF-268 CNS
  TGI: > 100 µM
HT29 colon
  TGI: > 100 µM
RXF 393 renal
  TGI: > 100 µM
UACC-62 melanoma
  TGI: > 100 µM
COLO 205 colon
  TGI: > 100 µM
SK-MEL-2 melanoma
  TGI: > 100 µM
SK-MEL-5 melanoma
  TGI: > 100 µM
BT-549 breast
  TGI: > 100 µM
A498 renal
  TGI: > 100 µM
SF-295 CNS
  TGI: > 100 µM
M14 melanoma
  TGI: > 100 µM
EKVX NSCLC
  TGI: > 100 µM
NCI-H23 lung
  TGI: > 100 µM
SF-539 CNS
  TGI: > 100 µM
NCI-H460 lung
  TGI: > 100 µM
NCI/ADR-RES ovarian
  TGI: > 100 µM
HOP-62 NSCLC
  TGI: > 100 µM
HS 578T breast
  TGI: > 100 µM
OVCAR-5 ovarian
  TGI: > 100 µM
UACC-257 melanoma
  TGI: > 100 µM
ACHN renal
  TGI: > 100 µM
T-47D breast
  TGI: > 100 µM
IGROV1 ovarian
  TGI: > 100 µM
TK-10 renal
  TGI: > 100 µM
MOLT-4 leukemia
  TGI: > 100 µM
HOP-92 NSCLC
  TGI: > 100 µM
SR leukemia
  TGI: > 100 µM
CAKI-1 renal
  TGI: > 100 µM
DU-145 prostate
  TGI: > 100 µM
U251 CNS
  TGI: > 100 µM
A549 NSCLC
  TGI: > 100 µM
MDA-MB-231 breast
  TGI: > 100 µM
SNB-75 CNS
  TGI: > 100 µM
HCT-15 colon
  TGI: > 100 µM
SW-620 colon
  TGI: > 100 µM
786-0 renal
  TGI: > 100 µM
OVCAR-8 ovarian
  TGI: > 100 µM
MALME-3M melanoma
  TGI: > 100 µM
NCI-H522 lung
  TGI: > 100 µM
UO-31 renal
  TGI: > 100 µM
NCI-H226 lung
  TGI: > 100 µM
PC-3 prostate
  TGI: > 100 µM
HCC-2998 colon
  TGI: > 100 µM
SNB-19 CNS
  TGI: > 100 µM
OVCAR-3 ovarian
  TGI: > 100 µM
MCF7 breast
  TGI: > 100 µM
SK-MEL-28 melanoma
  TGI: > 100 µM
SN12C renal
  TGI: > 100 µM
LOX IMVI melanoma
  TGI: > 100 µM
CCRF-CEM leukemia
  TGI: > 100 µM
